System: 144 ydaO (RNA, riboswitch) GGGAAAACAAAUCGCUUAAUCUGAAAUCAGAGCGGGGGACCCAAUAGAACGGCUUUUUGCCGUUGGGGUGAAUCCUUUUUAGGUAGGGCUAACUCUCAUAUGCCCGAAUCCGUCAGCUAACCUCGUAAGCGUUCGUGAGAGGAGAU
Assay: in-line probing
Conditions: low millimolar; tested to 3.16 mM; taken as the shorter construct of b32

binding: weak
SMILES: Nc1ncnc2c1ncn2[C@@H]1O[C@H](COP(=O)(O)OP(=O)(O)OP(=O)(O)O)[C@@H](O)[C@H]1O

From article PMC3830699 (2013)
